Counter-ions that a name gives are not always drawn.
target: T1, FAAH (Homo sapiens, UniProt O00519); test: Screening for an FAAH activity-inhibiting substance with human bladder epithelial cancer-derived cell line 5637 cells (IC50); type: cell-based; conditions: FAAH activity in human bladder epithelial cancer-derived 5637 cells, 37° C., 30 minutes
T1 construct: host or cells: 5637 human bladder epithelial cancer-derived cells, not transfected
T1 sequence (O00519 1-579): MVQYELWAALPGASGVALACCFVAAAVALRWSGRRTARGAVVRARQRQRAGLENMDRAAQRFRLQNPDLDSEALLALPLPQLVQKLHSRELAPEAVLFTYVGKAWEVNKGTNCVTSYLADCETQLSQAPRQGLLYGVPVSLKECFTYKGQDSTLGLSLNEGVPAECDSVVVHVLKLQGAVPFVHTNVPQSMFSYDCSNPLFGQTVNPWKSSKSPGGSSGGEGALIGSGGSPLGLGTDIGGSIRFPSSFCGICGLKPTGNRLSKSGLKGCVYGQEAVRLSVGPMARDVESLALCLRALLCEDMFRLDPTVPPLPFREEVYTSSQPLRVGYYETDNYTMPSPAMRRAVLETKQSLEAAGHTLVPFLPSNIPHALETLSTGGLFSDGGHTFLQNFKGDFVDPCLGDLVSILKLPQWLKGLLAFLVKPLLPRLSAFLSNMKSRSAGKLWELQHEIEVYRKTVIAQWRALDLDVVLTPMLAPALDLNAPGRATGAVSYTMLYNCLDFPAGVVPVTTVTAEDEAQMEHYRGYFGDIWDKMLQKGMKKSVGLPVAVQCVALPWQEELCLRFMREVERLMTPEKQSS
Description: Screening for an FAAH Activity-Inhibiting Substance with a Human Bladder Epithelial Cancer-Derived Cell
(1) Screening for an FAAH Activity Inhibiting Substance
Human bladder epithelial cancer-derived cell line 5637 cells (HTB-9; ATCC) were seeded on a 48-well cell culture plate in an amount of 1×10^5 cell/well, using 10% fetal bovine serum (HyClone)-containing RPMI1640 medium (Invitrogen Corporation). After incubated at 37° C. for 12 hours or longer, the cells were washed with 400 μl/well of a buffer (Hank's Balanced Salt Solution, 20 mM Hepes-NaOH (pH 7.4)). A test substance dissolved in DMSO was added to a substrate solution (the above buffer containing 3 μCi/ml radiolabeled anandamide (Anandamide [ethanolamine 1-^3H]) and 10 μM anandamide) so as to have a concentration from 0.003 nM to 30 nM. As a control, DMSO alone was added. 100 μl/well of the substrate solution was added to the above cells, and incubated in a CO2 incubator at 37° C. for 30 minutes. Next, the cell culture plate was transferred onto ice, and the substrate solution was removed by suction; and 75 μl/well of a cytolytic solution (the above buffer containing 0.5% Triton X-100, and 10 μM of FAAH-inhibitory activity-having compound, 3′-carbamoylbiphenyl-3-yl ester (URB597; Cayman chemical; Kathuria et al., Nature Med., Vol. 9, pp. 76-81, 2003)) was added thereto, followed by stirring. The resulting cell lysate in every well was individually transferred into a 1.5 ml sample tube, to which was added 150 μl of 1:1 (ratio by volume) chloroform/methanol solution, followed by vortexing. This was centrifuged (15000 rpm, 2 minutes), whereby the decomposed product, ethanolamine (ethanolamine 1-^3H) was separated in the upper layer (water/methanol layer) and the unreacted radiolabeled anandamide was in the lower layer (chloroform layer). 25 μl of the upper layer was transferred into a 96-well organic solvent-resistant white microplate (PicoPlate-96; Perkin Elmer, Inc.), 150 μl of Microscint-20 (Perkin Elmer, Inc.) was added thereto, and this was measured with a microplate scintillation counter (TopCount™; Beckman Coulter, Inc.). As compared with the control, the substance that gave a decreased value was selected as an FAAH activity-inhibiting substance.
(2) Measurement of the IC50 Value of the FAAH Activity Inhibiting Substance
The compound dissolved in DMSO to have a concentration of 10 mM was dissolved in the substrate solution so as to have a varying concentration from 0.003 nM to 30 nM. According to the method mentioned above, the compound was analyzed for its influence on FAAH activity. As a negative control, DMSO was used. As a positive control, URB597 was added to the substrate solution to have a concentration of 10 μM. Based on the measured value of the positive control, 0%, and on the measured value of the negative control, 100%, the IC50 value of the test substance was obtained. Furthermore, Ex represents Example No. as denoted below.

Structure (SMILES) | IC50 [nM]
O=C(Nc1cccnc1)N1CCC(Oc2ccc(OCc3cccc(F)c3)cc2)CC1 [Example 1, 4-{4-[(3-fluorobenzyl)oxy]phenoxy}-N-(pyridin-3-yl)piperidine-1-carboxamide hydrochloride] | 5.6
O=C(N1CCC(Oc2ccc(OCc3cccc(F)c3)cc2)CC1)n1ccnc1 [Example 12, 4-{4-[(3-fluorobenzyl)oxy]phenoxy}-1-(1H-imidazol-1-ylcarbonyl)piperidine] | 0.06
O=C(c1ccc(OCc2cccc(F)c2)cc1)C1CCN(C(=O)Nc2cccnc2)CC1 [Example 59] | 0.82
O=C(c1ccc(OCCC2CCCCC2)cc1)C1CCN(C(=O)Nc2cccnc2)CC1 [Example 75] | 0.81
O=C(Cc1ccc(OCc2cccc(F)c2)cc1)N1CCN(C(=O)Nc2cccnc2)CC1 [Example 136] | 0.22
O=C(Nc1ccc(-n2cccn2)nc1)N1CCN(C(=O)c2cccc(OCCC3CCCCC3)c2)CC1 [Example 156] | 0.33
Nc1ccnn1C(=O)N1CCN(C(=O)c2cccc(OCCC3CCCCC3)c2)CC1 [Example 159] | 0.29
CC(=O)Nc1ccc(NC(=O)N2CCN(C(=O)c3cccc(OCCC4CCCCC4)c3)CC2)cn1 [Example 179] | 0.21
O=C(c1ccc(OCc2cccc(F)c2)cc1)N1CCN(C(=O)n2ccnc2)CC1 [Example 300] | 0.16
CCCCCCOc1ccc(C(=O)N2CCN(C(=O)Nc3cccnc3)CC2)cc1 [Example 317] | 0.57
O=C(Nc1cccnc1)N1CCN(C(=O)c2cccc(OCC3CCCCC3)c2)CC1 [Example 320] | 0.24
CN(Cc1cccc(F)c1)c1ccc(C(=O)N2CCN(C(=O)Nc3cccnc3)CC2)cc1 [Example 322] | 0.54
O=C(Nc1cccnc1)N1CCN(Cc2cccc(OCCC3CCCCC3)c2)CC1 [Example 388] | 0.08
O=C(Nc1cccnc1)N1CCN(C(=O)c2cccc(OCCc3ccccc3)c2)CC1 [Example 426] | 0.12
O=C(Nc1nccnc1Cl)N1CCC(Oc2cccc(OCCC3CCCCC3)c2)CC1 [Example 488] | 0.85

— patent US20110172230A1, “UREA COMPOUND OR SALT THEREOF” (priority 2006, published 2011)
